{
  "source": "paper PMC5933782",
  "about": "“Molecular structures of cdc2-like kinases in complex with a new inhibitor chemotype” (PLoS ONE, 2018)",
  "key": {"DYRK1B": {"biological_target": "DYRK1B (Homo sapiens, UniProt Q9Y463)", "sequence (Q9Y463 whole entry)": "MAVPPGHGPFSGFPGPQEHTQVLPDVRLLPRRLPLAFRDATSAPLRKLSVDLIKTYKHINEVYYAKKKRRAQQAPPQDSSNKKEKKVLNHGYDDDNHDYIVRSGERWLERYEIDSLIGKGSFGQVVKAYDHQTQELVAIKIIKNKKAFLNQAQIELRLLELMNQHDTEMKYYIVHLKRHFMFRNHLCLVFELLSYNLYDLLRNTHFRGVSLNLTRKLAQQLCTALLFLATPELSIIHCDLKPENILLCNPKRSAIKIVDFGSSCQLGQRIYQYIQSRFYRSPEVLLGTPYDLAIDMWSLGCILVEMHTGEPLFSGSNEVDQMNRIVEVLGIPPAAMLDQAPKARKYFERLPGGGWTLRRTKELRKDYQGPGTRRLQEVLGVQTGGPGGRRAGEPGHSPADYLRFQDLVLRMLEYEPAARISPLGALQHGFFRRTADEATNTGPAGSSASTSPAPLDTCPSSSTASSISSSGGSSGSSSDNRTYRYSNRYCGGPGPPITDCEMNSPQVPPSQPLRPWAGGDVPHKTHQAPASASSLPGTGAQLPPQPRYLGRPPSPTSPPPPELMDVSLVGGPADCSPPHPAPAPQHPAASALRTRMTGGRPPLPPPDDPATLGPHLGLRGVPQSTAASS", "assay": "radiometric protein kinase assay", "type": "biochemical", "details": "15 μmol/L ATP; read-out: IC50 DYRK 1B"}, "CLK2": {"biological_target": "CLK2 (Mus musculus, UniProt O35491)", "sequence (O35491 whole entry)": "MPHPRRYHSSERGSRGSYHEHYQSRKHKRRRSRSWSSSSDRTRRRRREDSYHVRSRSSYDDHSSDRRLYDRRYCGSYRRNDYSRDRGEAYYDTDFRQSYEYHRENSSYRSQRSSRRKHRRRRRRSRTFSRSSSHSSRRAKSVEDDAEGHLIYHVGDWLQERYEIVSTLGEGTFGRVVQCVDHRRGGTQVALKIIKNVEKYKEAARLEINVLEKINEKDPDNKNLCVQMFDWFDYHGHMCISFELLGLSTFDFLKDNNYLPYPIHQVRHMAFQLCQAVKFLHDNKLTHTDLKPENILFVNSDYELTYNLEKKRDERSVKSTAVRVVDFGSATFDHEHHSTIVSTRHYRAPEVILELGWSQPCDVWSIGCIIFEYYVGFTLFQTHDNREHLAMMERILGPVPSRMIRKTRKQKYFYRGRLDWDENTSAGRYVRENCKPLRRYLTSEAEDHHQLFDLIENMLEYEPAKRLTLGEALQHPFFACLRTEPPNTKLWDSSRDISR", "assay": "radiometric protein kinase assay", "quoted_text": "Buffers. Buffer A: 10 mM MgCl2, 1 mM EGTA, 1 mM DTT, 25 mM Tris-HCl pH 7.5, 50 μg heparin/mL. Buffer C: 60 mM β-glycerophosphate, 15 mM p-nitrophenylphosphate, 25 mM MOPS (pH 7.2), 15 mM EGTA, 15 mM MgCl2, 1 mM DTT, 1 mM sodium vanadate, 1 mM phenylphosphate.\nKinase activities were assayed in buffer A or C at 30°C at a final ATP concentration of 15 μmol/L. Blank values were subtracted and activities were expressed in percent of the maximal activity, i.e. in the absence of inhibitors. Controls were performed with appropriate dilutions of DMSO.\nTheir kinase activity was assayed in buffer A, with 1 mg histone H1/mL, in the presence of 15 μmol/L [γ-33P] ATP (3,000 Ci/mmol; 10 mCi/mL) in a final volume of 30 μL. After 30 min incubation at 30°C, the reaction was stopped by harvesting onto P81 phosphocellulose supernatant (Whatman) using a FilterMate harvester (Packard) and washing in 1% phosphoric acid. Scintillation fluid was added and the radioactivity measured in a Packard counter.\nAll data points for construction of dose response curves were recorded in triplicate."}, "CDK2/cyclin A": {"biological_target": "T1, CDK2/cyclin A (Homo sapiens, UniProt P24941)", "T1 construct": "made in house", "assay": "radiometric protein kinase assay", "type": "biochemical", "details": "15 μmol/L ATP; read-out: IC50 CDK2/cyclinA"}, "CLK4": {"biological_target": "CLK4 (Mus musculus, UniProt O35493)", "sequence (O35493 whole entry)": "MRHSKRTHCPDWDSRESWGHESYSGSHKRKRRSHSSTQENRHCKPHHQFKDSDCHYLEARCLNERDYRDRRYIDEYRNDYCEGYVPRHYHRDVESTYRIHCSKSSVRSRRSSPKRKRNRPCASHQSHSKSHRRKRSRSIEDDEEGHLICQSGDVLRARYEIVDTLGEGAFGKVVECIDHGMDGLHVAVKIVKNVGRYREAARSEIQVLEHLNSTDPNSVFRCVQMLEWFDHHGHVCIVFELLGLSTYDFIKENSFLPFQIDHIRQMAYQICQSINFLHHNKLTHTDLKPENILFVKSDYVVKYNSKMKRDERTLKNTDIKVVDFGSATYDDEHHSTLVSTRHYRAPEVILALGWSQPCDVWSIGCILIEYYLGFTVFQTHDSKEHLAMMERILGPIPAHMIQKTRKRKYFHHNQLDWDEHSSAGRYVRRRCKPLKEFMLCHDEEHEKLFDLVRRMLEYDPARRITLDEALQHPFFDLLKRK", "assay": "radiometric protein kinase assay"}, "DYRK2": {"biological_target": "T2, DYRK2 (Homo sapiens, UniProt Q92630)", "T2 sequence (Q92630 1-601)": "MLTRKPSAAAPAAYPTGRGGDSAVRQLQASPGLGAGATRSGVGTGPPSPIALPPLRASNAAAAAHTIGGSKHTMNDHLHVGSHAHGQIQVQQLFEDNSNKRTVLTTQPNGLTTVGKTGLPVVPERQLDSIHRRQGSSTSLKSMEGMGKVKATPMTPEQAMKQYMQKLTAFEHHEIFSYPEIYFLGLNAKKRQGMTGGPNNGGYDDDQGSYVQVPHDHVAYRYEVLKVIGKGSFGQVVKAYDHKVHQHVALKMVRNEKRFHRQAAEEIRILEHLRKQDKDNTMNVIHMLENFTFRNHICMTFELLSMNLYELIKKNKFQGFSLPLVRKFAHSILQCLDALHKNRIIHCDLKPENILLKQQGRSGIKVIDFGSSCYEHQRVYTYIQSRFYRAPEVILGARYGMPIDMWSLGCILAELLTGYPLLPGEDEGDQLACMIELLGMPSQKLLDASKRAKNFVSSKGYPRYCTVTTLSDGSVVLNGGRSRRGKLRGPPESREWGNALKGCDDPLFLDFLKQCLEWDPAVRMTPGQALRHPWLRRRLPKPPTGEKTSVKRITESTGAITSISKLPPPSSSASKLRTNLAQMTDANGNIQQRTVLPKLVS", "assay": "radiometric protein kinase assay", "type": "biochemical", "details": "15 μmol/L ATP; read-out: IC50 DYRK 2"}, "RXF 393": {"system": "RXF 393", "assay": "NCI cancer cell line screening", "type": "cell-based", "details": "Homo sapiens; RXF 393, Renal Cancer", "experimental": "(§1) Being the most promising compound in terms of CLK1 inhibitory potency and selectivity, KuWal151 (8c) was tested in the National Cancer Institute cancer cell line screening on 57 tumor cell lines of different tissue origin [45]. With only a few exceptions, KuWal151 inhibited the growth of most cell lines in submicromolar concentrations. In Table 2 the cancer cell line inhibition data is listed with the expression rates of SPF45 and CLK1 as indicated in the Expression Atlas database (https://www.ebi.ac.uk/gxa/home). Apparently the cell lines with high levels of CLK1 encoding RNA are inhibited over average. […] However, the available data are not sufficient to construe a clear relationship between the expression levels of the putative target CLK1 and sensitivity of the cell lines against 8c. The same holds true for SPF45, an important substrate of CLK1 involved in splicing which is found to be overexpressed in many cancer cell lines. […] The lack of a straight relationship between CLK1 and/or SPF45 expression levels on the one hand and sensitivity against the CLK1 inhibitor 8c on the other hand may have various reasons, e.g. different uptake rates of the inhibitor by the cells or alternative intracellular targets. For verification of the results from the NCI screening, which is based on the in situ fixation of cells followed by staining with the protein-binding dye sulforhodamin B [47, 48], 8c was also tested on two cell lines of the NCI panel (HT-29 and MDA-MB-231) in a crystal violet assay."}, "CCRF-CEM": {"system": "CCRF-CEM", "assay": "NCI cancer cell line screening", "type": "cell-based", "details": "Homo sapiens, Leukemia", "experimental": "as §1"}, "RPMI-8226": {"system": "RPMI-8226", "assay": "NCI cancer cell line screening", "type": "cell-based", "details": "Homo sapiens; RPMI-8226, Leukemia", "experimental": "as §1"}, "SW-620": {"system": "SW-620", "assay": "NCI cancer cell line screening", "type": "cell-based", "details": "Homo sapiens; SW-620, Colon Cancer", "experimental": "as §1"}, "MDA-MB-435": {"system": "MDA-MB-435", "assay": "NCI cancer cell line screening", "type": "cell-based", "details": "Homo sapiens", "experimental": "as §1"}, "MDA-MB-231/ATCC": {"system": "MDA-MB-231/ATCC", "assay": "NCI cancer cell line screening", "type": "cell-based", "details": "Homo sapiens, Breast Cancer", "experimental": "as §1"}, "BT-549": {"system": "BT-549", "assay": "NCI cancer cell line screening", "type": "cell-based", "details": "Homo sapiens; BT-549, Breast Cancer", "experimental": "as §1"}, "A549/ATCC": {"system": "A549/ATCC", "assay": "NCI cancer cell line screening", "type": "cell-based", "details": "Homo sapiens, Non-Small Cell Lung Cancer", "experimental": "as §1"}, "A498": {"system": "A498", "assay": "NCI cancer cell line screening", "type": "cell-based", "details": "Homo sapiens; A498, Renal Cancer", "experimental": "as §1"}, "SN12C": {"system": "SN12C", "assay": "NCI cancer cell line screening", "type": "cell-based", "details": "Homo sapiens, Renal Cancer", "experimental": "as §1"}, "ACHN": {"system": "ACHN", "assay": "NCI cancer cell line screening", "type": "cell-based", "details": "Homo sapiens, Renal Cancer", "experimental": "as §1"}, "OVCAR-4": {"system": "OVCAR-4", "assay": "NCI cancer cell line screening", "type": "cell-based", "details": "Homo sapiens; OVCAR-4, Ovarian Cancer", "experimental": "as §1"}, "786–0": {"system": "786–0", "assay": "NCI cancer cell line screening", "type": "cell-based", "details": "Homo sapiens; 786–0, Renal Cancer", "experimental": "as §1"}, "NCI-H522": {"system": "NCI-H522", "assay": "NCI cancer cell line screening", "type": "cell-based", "details": "Homo sapiens; NCI-H522, Non-Small Cell Lung Cancer", "experimental": "as §1"}, "SNB-19": {"system": "SNB-19", "assay": "NCI cancer cell line screening", "type": "cell-based", "details": "Homo sapiens; SNB-19, CNS Cancer", "experimental": "as §1"}, "SF-539": {"system": "SF-539", "assay": "NCI cancer cell line screening", "type": "cell-based", "details": "Homo sapiens; SF-539, CNS Cancer", "experimental": "as §1"}, "HS 578T": {"system": "HS 578T", "assay": "NCI cancer cell line screening", "type": "cell-based", "details": "Homo sapiens, Breast Cancer", "experimental": "as §1"}, "OVCAR-5": {"system": "OVCAR-5", "assay": "NCI cancer cell line screening", "type": "cell-based", "details": "Homo sapiens; OVCAR-5, Ovarian Cancer", "experimental": "as §1"}, "NCI-H322M": {"system": "NCI-H322M", "assay": "NCI cancer cell line screening", "type": "cell-based", "details": "Homo sapiens, Non-Small Cell Lung Cancer", "experimental": "as §1"}, "KM12": {"system": "KM12", "assay": "NCI cancer cell line screening", "type": "cell-based", "details": "Homo sapiens; KM12, Colon Cancer", "experimental": "as §1"}, "MCF7": {"system": "MCF7", "assay": "NCI cancer cell line screening", "type": "cell-based", "details": "Homo sapiens; MCF7, Breast Cancer", "experimental": "as §1"}, "SK-OV-3": {"system": "SK-OV-3", "assay": "NCI cancer cell line screening", "type": "cell-based", "details": "Homo sapiens; SK-OV-3, Ovarian Cancer", "experimental": "as §1"}, "K-562": {"system": "K-562", "assay": "NCI cancer cell line screening", "type": "cell-based", "details": "Homo sapiens, K562; K-562, Leukemia", "experimental": "as §1"}},
  "data": [
    {"smiles": "O=C1NCc2ccc3c(-c4cccc(Cl)c4)c[nH]c3c21", "note": "[8c, 3-(3-Chlorophenyl)-6,7-dihydropyrrolo[3,4-g]indol-8(1H)-one]", "values": [
      {"measurement": "IC50", "setting": "DYRK1B", "value": "> 10000", "unit": "nM"},
      {"measurement": "IC50", "setting": "CLK2", "value": 510, "unit": "nM"},
      {"measurement": "IC50", "setting": "CDK2/cyclin A", "value": "> 10000", "unit": "nM"},
      {"measurement": "IC50", "setting": "CLK4", "value": 28, "unit": "nM"},
      {"measurement": "IC50", "setting": "DYRK2", "value": "> 10000", "unit": "nM"},
      {"measurement": "GI50", "setting": "RXF 393", "value": 457, "unit": "nM"},
      {"measurement": "GI50", "setting": "CCRF-CEM", "value": 178, "unit": "nM"},
      {"measurement": "GI50", "setting": "RPMI-8226", "value": 288, "unit": "nM"},
      {"measurement": "GI50", "setting": "SW-620", "value": 209, "unit": "nM"},
      {"measurement": "GI50", "setting": "MDA-MB-435; MDA-MB-435, MDA-MB-435, Melanoma", "value": 72.4, "unit": "nM"},
      {"measurement": "GI50", "setting": "MDA-MB-435; MDA-MB-435, MDA-MB-435, as quoted in text", "value": 72, "unit": "nM"},
      {"measurement": "GI50", "setting": "MDA-MB-231/ATCC", "value": 1380, "unit": "nM"},
      {"measurement": "GI50", "setting": "BT-549", "value": 204, "unit": "nM"},
      {"measurement": "GI50", "setting": "A549/ATCC", "value": 389, "unit": "nM"},
      {"measurement": "GI50", "setting": "A498", "value": 166, "unit": "nM"},
      {"measurement": "GI50", "setting": "SN12C", "value": 331, "unit": "nM"},
      {"measurement": "GI50", "setting": "ACHN", "value": 372, "unit": "nM"},
      {"measurement": "GI50", "setting": "OVCAR-4", "value": 912, "unit": "nM"},
      {"measurement": "GI50", "setting": "786–0", "value": 275, "unit": "nM"},
      {"measurement": "GI50", "setting": "NCI-H522", "value": 158, "unit": "nM"},
      {"measurement": "GI50", "setting": "SNB-19", "value": 389, "unit": "nM"},
      {"measurement": "GI50", "setting": "SF-539", "value": 166, "unit": "nM"},
      {"measurement": "GI50", "setting": "HS 578T", "value": 204, "unit": "nM"},
      {"measurement": "GI50", "setting": "OVCAR-5", "value": 1250, "unit": "nM"},
      {"measurement": "GI50", "setting": "NCI-H322M", "value": 2390, "unit": "nM"},
      {"measurement": "GI50", "setting": "KM12", "value": 209, "unit": "nM"},
      {"measurement": "GI50", "setting": "MCF7", "value": 174, "unit": "nM"},
      {"measurement": "GI50", "setting": "SK-OV-3", "value": 275, "unit": "nM"},
      {"measurement": "GI50", "setting": "K-562", "value": 162, "unit": "nM"}
    ]}
  ]
}
